Test results published in US20230134958A1, “NEW MEDICAL TREATMENT” (Umecrine Cognition AB, priority 2021, published 2023).

Test system: cirrhotic patients defined as Child-Pugh class A and B with manifestation of CHE
Experiment: Continuous Reaction Time (CRT) test, clinical Phase II study part D (EudraCT 2016-003651-30), 21 days extended treatment
Assay type: in vivo, human
Method: Protocol EudraCT 2016-003651-30 was a randomized, double-blinded, placebo-controlled study consisting of four parts, where part D (partly) of the study is relevant to the herein disclosed and claimed invention. The aim of the study was to assess the potential efficacy (Part D) of the compound golexanolone in patients with cirrhosis. The study was performed at sites in Sweden, Denmark, Ukraine, Russia, Hungary and Poland.
Extended treatment (21 consecutive days) in cirrhotic patients defined as Child-Pugh class A and B with manifestation of CHE, was performed.
An objective of study part D (phase IIa, extended treatment) was to assess preliminary efficacy of treatment with the compound golexanolone on cognitive function, as measured by the Continuous Reaction time (CRT) test.
In order to be eligible for the study, patients required evidence of cognitive impairment defined as a CRT index <1.9 at screening. CRT was re-assessed at baseline, prior to dosing but was not required to be abnormal at baseline.
Exclusion criteria included uncontrolled infection, active gastrointestinal bleeding, a history of bleeding requiring transfusion, transjugular intrahepatic portosystemic shunt placement within the past 90 days, hepatorenal syndrome, uncontrolled ascites, current malignancy, evidence of overt HE at screening or within 7 days of screening, use of psychoactive drugs, or any other psychiatric or medical comorbidity judged by the Investigator to preclude safe participation and/or confound the interpretation of study results.
Alcohol consumption was not allowed within two days prior to screening or for 24 hours prior to all study visits. Moreover, subjects were required to have a negative alcohol breath test at screening and subsequent study visits, including Part D study days 10 and 21 at which cognitive function was measured.
The Investigational Medicinal Product (IMP) is self-administered by the patient at home, except for the study days of visiting the clinic (Days 1, 10 and 21), when the IMP is administered under surveillance. Assistance of a dedicated care-giver or family members/friends is mandatory during the extended treatment period. Intake of study medication, changes in concomitant medications and medical events between visits are registered in a diary on a daily basis by the patient/care-giver and a care-giver diary is completed. Efficacy parameters are evaluated. If assessed as required for practical reasons, a patient can be confined to the research clinic from the evening before dosing on Day 21. A follow-up visit is performed 5-10 days after (last) IMP administration. Change in CRT index from baseline (day 1) to 10 and 21 days respectively after start of treatment, as
compared to placebo, is evaluated.
The Investigational Medical Product (clinical formulation) is supplied as a lipid semi-solid filled in a gelatine capsule for oral administration. For the present study, each capsule contains 10 mg golexanolone. The excipient is a mixture of mono -and diglycerides of capric/caprylic glycerides (Imwitor® 742), which is of pharmacopoeia quality.
The Investigational Medical Product golexanolone is administered every twelve (12) hours (i. e. twice daily) for 21 consecutive days.
10 mg golexanolone BID (i.e. 20 mg per day) in combination with Standard of Care therapy; or 40 mg golexanolone BID (i.e. 80 mg per day) in combination with Standard of Care therapy; or 80 mg golexanolone BID (i.e. 160 mg per day) in combination with Standard of Care therapy; or placebo BID in combination with Standard of Care therapy.
Standard of Care therapy may be any one of an oral antioxidant, fluvoxamine, fluoxetine, ondansetron, colchicine, UDCA (ursodeoxycholic acid), OCA (obeticholic acid), ciclosporin, nalmefene, modafinil, rituximab, lactulose, rifaximin, propranolol, furosemide, methotrexate; or any combination thereof.

C#C[C@]1(O)CC[C@@]2(C)C(CC[C@@H]3[C@@H]2CC[C@]2(C)/C(=N/O)CC[C@@H]32)C1 (stereo partly drawn) [Golexanolone, 3α-ethynyl-3β-hydroxyandrostan-17-one oxime]
Change in CRT compared to baseline (36 patients with abnormal CRT (<1.9) at baseline, 10 mg BID oral with Standard of Care, Day 10, N = 8): 0.3504
Change in CRT compared to baseline (36 patients with abnormal CRT (<1.9) at baseline, 10 mg BID oral with Standard of Care, Day 21, N = 8): 0.4166
Change in CRT compared to baseline (36 patients with abnormal CRT (<1.9) at baseline, 40 mg BID oral with Standard of Care, Day 10, N = 10): 0.3035
Change in CRT compared to baseline (36 patients with abnormal CRT (<1.9) at baseline, 40 mg BID oral with Standard of Care, Day 21, N = 10): 0.4276
Change in CRT compared to baseline (36 patients with abnormal CRT (<1.9) at baseline, 80 mg BID oral with Standard of Care, Day 10, N = 9): 0.5109
Change in CRT compared to baseline (36 patients with abnormal CRT (<1.9) at baseline, 80 mg BID oral with Standard of Care, Day 21, N = 9): 0.5219
Change in CRT compared to baseline (all 45 patients with abnormal (<1.9) or normal CRT at baseline, 10 mg BID oral with Standard of Care, Day 10, N = 10): 0.2762
Change in CRT compared to baseline (all 45 patients with abnormal (<1.9) or normal CRT at baseline, 10 mg BID oral with Standard of Care, Day 21, N = 10): 0.2792
Change in CRT compared to baseline (all 45 patients with abnormal (<1.9) or normal CRT at baseline, 40 mg BID oral with Standard of Care, Day 10, N = 10): 0.3035
Change in CRT compared to baseline (all 45 patients with abnormal (<1.9) or normal CRT at baseline, 40 mg BID oral with Standard of Care, Day 21, N = 10): 0.4276
Change in CRT compared to baseline (all 45 patients with abnormal (<1.9) or normal CRT at baseline, 80 mg BID oral with Standard of Care, Day 10, N = 13): 0.4593
Change in CRT compared to baseline (all 45 patients with abnormal (<1.9) or normal CRT at baseline, 80 mg BID oral with Standard of Care, Day 21, N = 13): 0.3505
